Tests used:
[1] = system: Escherichia coli; assay: Antimicrobial activity against Escherichia coli ATCC 25922 after 48 hrs by NCCLS protocol based method; type: functional; settings: ATCC 25922, 48 h
[2] = system: Aspergillus niger; assay: Antifungal activity against Aspergillus niger NCIM 545 after 48 hrs by NCCLS protocol based method; type: functional; settings: NCIM 545, 48 h
[3] = system: Candida albicans; assay: Antifungal activity against Candida albicans MTCC 277 after 48 hrs by NCCLS protocol based method; type: functional; settings: MTCC 277, 48 h
[4] = system: Bacillus subtilis; assay: Antimicrobial activity against Bacillus subtilis NCIM 2250 after 48 hrs by NCCLS protocol based method; type: functional; settings: NCIM 2250, 48 h
[5] = system: Bacillus subtilis; assay: Antimicrobial activity against Bacillus subtilis; type: functional
[6] = system: Micrococcus luteus; assay: Antibacterial activity against Micrococcus luteus; type: functional
[7] = system: Salmonella typhimurium; assay: Antimicrobial activity against Salmonella typhimurium; type: functional, Salmonella enterica subsp. enterica serovar Typhimurium; settings: Salmonella enterica
[8] = system: Priestia megaterium; assay: Antimicrobial activity against Bacillus megaterium; type: functional
[9] = system: Escherichia coli; assay: Antimicrobial activity against Escherichia coli; type: functional
[10] = system: PANC-1; assay: Growth inhibition of human PANC1 cells; type: functional
[11] = system: SiHa; assay: Growth inhibition of human SiHa cells; type: functional
[12] = system: MDA-MB-231; assay: Growth inhibition of human MDA-MB-231 cells; type: functional
[13] = system: Escherichia coli; assay: Antimicrobial activity against Escherichia coli assessed as zone of inhibition at 50 ug/ml; type: functional; settings: read-out: IZ
[14] = system: Staphylococcus aureus; assay: Antimicrobial activity against Staphylococcus aureus assessed as zone of inhibition at 50 ug/ml; type: functional; settings: read-out: IZ
[15] = system: Candida albicans; assay: Antifungal activity against Candida albicans assessed as zone of inhibition at 50 ug/ml; type: functional; settings: read-out: IZ
[16] = system: Aspergillus niger; assay: Antifungal activity against Aspergillus niger assessed as zone of inhibition at 50 ug/ml; type: functional; settings: read-out: IZ

CCOC(=O)C(C#N)C(c1cc2cc(C)ccc2n2nnnc12)P(=O)(OCC)OCC (stereo unspecified)
10 to 20 µg/mL: MIC [1] | MIC [2] | MIC [3] | MIC [4]

CCn1cc(C(=O)O)c(=O)c2cnc(N3CCNCC3)nc21 [PIPEMIDIC ACID]
31.2 µg/mL: MIC [5] | MIC [6] | MIC [7] | MIC [8] | MIC [9]

CCOC(=O)C(C#N)C(c1cc2ccccc2n2nnnc12)P(=O)(OCC)OCC (stereo unspecified)
10 to 20 µg/mL: MIC [1] | MIC [2] | MIC [3] | MIC [4]

O=C(O)c1cn(C2CC2)c2cc(N3CCN(C(=O)CCSc4nnnn4-c4ccc(F)c(F)c4F)CC3)c(F)cc2c1=O
≤ 1 µM: GI50 [10] | GI50 [11] | GI50 [12]
15.6 µg/mL: MIC [5] | MIC [6] | MIC [7] | MIC [8] | MIC [9]

Cc1ccc(/C=C/C(=O)n2nnnc2-c2ccccc2)cc1
8 to 15 mm: zone of inhibition at 50 µg/mL [13] | zone of inhibition at 50 µg/mL [14] | zone of inhibition at 50 µg/mL [15] | zone of inhibition at 50 µg/mL [16]

O=C(/C=C/c1ccc(Br)cc1)n1nnnc1-c1ccccc1
8 to 15 mm: zone of inhibition at 50 µg/mL [13] | zone of inhibition at 50 µg/mL [14] | zone of inhibition at 50 µg/mL [15] | zone of inhibition at 50 µg/mL [16]

COC1=CC(=O)C[C@@H](C)[C@]12Oc1c(Cl)c(OC)cc(OC)c1C2=O [GRISEOFULVIN]
21 to 24 mm: zone of inhibition at 50 µg/mL [13] | zone of inhibition at 50 µg/mL [14] | zone of inhibition at 50 µg/mL [15] | zone of inhibition at 50 µg/mL [16]
10 µg/mL: MIC [1] | MIC [2] | MIC [3] | MIC [4]

CCn1nnnc1SCCC(=O)N1CCN(c2cc3c(cc2F)c(=O)c(C(=O)O)cn3C2CC2)CC1
≤ 1 µM: GI50 [10] | GI50 [11] | GI50 [12]
15.6 µg/mL: MIC [5] | MIC [6] | MIC [7] | MIC [8] | MIC [9]

O=C(O)c1cn(C2CC2)c2cc(N3CCN(C(=O)CCSc4nnnn4Cc4ccccc4)CC3)c(F)cc2c1=O
15.6 µg/mL: MIC [5] | MIC [6] | MIC [7] | MIC [8] | MIC [9]
≤ 1 µM: GI50 [10] | GI50 [11] | GI50 [12]

O=C(/C=C/c1ccccc1[N+](=O)[O-])n1nnnc1-c1ccccc1
8 to 15 mm: zone of inhibition at 50 µg/mL [13] | zone of inhibition at 50 µg/mL [14] | zone of inhibition at 50 µg/mL [15] | zone of inhibition at 50 µg/mL [16]

O=C(/C=C/c1ccc([N+](=O)[O-])cc1)n1nnnc1-c1ccccc1
8 to 15 mm: zone of inhibition at 50 µg/mL [13] | zone of inhibition at 50 µg/mL [14] | zone of inhibition at 50 µg/mL [15] | zone of inhibition at 50 µg/mL [16]

O=C(/C=C/c1ccccc1)n1nnnc1-c1ccccc1
8 to 15 mm: zone of inhibition at 50 µg/mL [13] | zone of inhibition at 50 µg/mL [14] | zone of inhibition at 50 µg/mL [15] | zone of inhibition at 50 µg/mL [16]

CCn1cc(C(=O)O)c(=O)c2cnc(N3CCN(C(=O)CCSc4nnnn4-c4ccc(Br)cc4)CC3)nc21
0.07 to 0.22 µM: GI50 [10] | GI50 [11] | GI50 [12]

CCOC(=O)C(C#N)C(c1cc2c(C)cccc2n2nnnc12)P(=O)(OCC)OCC (stereo unspecified)
10 to 20 µg/mL: MIC [1] | MIC [2] | MIC [3] | MIC [4]

CN(C)c1ccc(/C=C/C(=O)n2nnnc2-c2ccccc2)cc1
8 to 15 mm: zone of inhibition at 50 µg/mL [13] | zone of inhibition at 50 µg/mL [14] | zone of inhibition at 50 µg/mL [15] | zone of inhibition at 50 µg/mL [16]

Reference: ChEMBL document CHEMBL4342421, “Current scenario of tetrazole hybrids for antibacterial activity” (Eur J Med Chem, 2019)
